Test results from PMC10384666, “Impact of Peptide Structure on Colonic Stability and Tissue Permeability” (Pharmaceutics, 2023).
Bridge positions count the residues as written; N and C are the ends. Square brackets hold non-standard residues; d marks the D form. Ends that are not written are not given here. Peptide text beside a SMILES is read from it.

What was measured:
[1] = Peptide stability in a human colon model (pooled human faecal slurry, anaerobic); type: in vitro ADME; conditions: for Degradation rate constant / half-life at 1 mg/mL: fitted to exponential (one-phase, first-order) decay model; for Degradation rate constant: plateau 0.0; for remaining at 1.5 h, 1 mg/mL: after 1.5 h incubation, n = 3, read-out: peptide remaining intact (of starting concentration); for higher stability than linear P1: at 30 min, relative to P1 (totally degraded); for time interval in which entirely depleted: footnote to Table S1
Experimental: The human colon model (HCM) was prepared to mimic in vivo colonic conditions and maintain microbial viability. Fresh human faecal material was provided voluntarily from 3 healthy individuals who had not taken antibiotics for at least 6 months. Approval for the collection and use of human faecal material was obtained from the National Research Ethics Service (NRES) of Royal Free Hospital Biobank (reference number NC2017.010). Faecal material from the 3 donors was pooled and then diluted within an anaerobic workstation (37 °C, 70% relative humidity) (Elektrotek, Yorkshire, United Kingdom), using an in-house basal growth media to prepare 12.5% or 25% faecal slurries. These slurry concentrations have been used to measure the colonic stability of several drugs and exceed the minimum concentrations required for biorelevant bacterial activity. The samples were homogenised before being sieved (SefarNitex™, pore size 350 µm) to remove fibrous material. Faecal slurry was frozen at −80 °C in aliquots and thawed immediately prior to use.
Peptide stability studies were conducted within the anaerobic workstation (Elektrotek, Yorkshire, United Kingdom). An amount of 2 mg/mL stock solutions of oxytocin and oxytocin variants were prepared and added to HCM at a 1:1 ratio, leading to 1 mg/mL incubation concentrations (n = 3 for each peptide). Incubation vials were placed on a 100 RPM shaker and 50 µL samples were withdrawn at specific time intervals (0, 0.5, 1 and 1.5 h) and immediately quenched with 50 µL methanol (1:1) to terminate protease activity. Samples were centrifuged at 16,900 RCF for 10 min at 4 °C, and the supernatant was collected for peptide quantification with a 1260 II Series™ HPLC system (Agilent Technologies, Cheadle, UK). A Luna C18 (5 µm, 100 Å, 150 × 4.6 mm) HPLC column was used with a 1.0 mL/min flow rate, an injection volume of 20 µL and mobile phases of 0.1% TFA in water and ACN, with varying gradients for optimised individual peptide quantification to prevent overlap with endogenous components of the HCM.
All results are presented as mean ± standard deviation and subjected to statistical analysis using GraphPad Prism 9 (GraphPad by Dotmatics). Two-way ANOVA with Dunnett’s multiple comparison test was performed to determine statistical significance between peptides and native oxytocin at multiple timepoints. Results were deemed significant where p < 0.05. The physicochemical properties of peptides were estimated using RDKit (version 2021.09.4) in Python (version 3.6.15) via Jupyter Notebook (version 6.3.0) using the peptides’ isomeric SMILES. The Tanimoto similarities of the peptide variants’ molecular structure to native oxytocin was calculated using chemical fingerprints (ECFP6, radius 3, 2048 bits) RDKit (version 2022.9.1) with Python (version 3.7.0) via Google Colaboratory. Chemical similarity maps were generated using RDKit based on bit-vector fingerprints (chirality = true, radius 3, 2048 bits) and Tanimoto similarity. The degradation profiles of peptides were fitted to an exponential decay model in GraphPad Prism 9. A nonlinear regression (one-phase decay, also known as first-order decay) curve was fitted to the peptide stability data with a plateau constraint of 0.0.

[2] = Peptide tissue permeability, Ussing chamber with rat colonic tissue; type: in vitro ADME; conditions: for original dose detected in the basolateral chamber / original dose detected within the colonic tissue: at 2 h; for Papp at 2 h, 1 mg/mL: pH 7.4, 2 h (120 min)
Experimental: Peptide permeability studies were conducted using the NaviCyte Vertical Ussing chamber model (Harvard Apparatus, Cambridge, UK). Amounts of 250–300 g adult male Wistar rats (n = 3) were selected and sacrificed, in accordance with the accepted ethical standards of the National Research Ethics Service (ethical approval number 21/WA/0388). The rat colonic tissues were excised, processed to remove luminal contents and gently washed with Krebs-Ringer Bicarbonate (KBR) buffer (pH 7.4). Each colonic tissue was mounted on an Ussing chamber with the mucosal side facing the apical chamber. The tissue was allowed to acclimatise in the KBR buffer for 20 min. Transepithelial electrical resistance (TEER) across the tissue was measured using an EVOM^TM voltameter (World Precision Instruments, Inc., Hertfordshire, UK) and Ag/AgCl electrodes (Harvard Apparatus, Cambridge, UK). TEER values were measured to ensure the tissue integrity was maintained (≥200 Ω cm^2). The native oxytocin and oxytocin variants at 1 mg/mL concentrations were added to the apical chamber to measure peptide permeation into the tissue and into the basal chamber. Each peptide was tested twice using tissue from the three rats to account for any inter-animal variability. The Ussing chambers were continuously pumped with a supply of carbogen (95% oxygen/5% carbon dioxide) and maintained at 37 °C. An amount of 100 µL samples were taken from the basal side at 1 and 2 h timepoints. At 2 h, the tissues were collected, quenched with 6.25 µL methanol/mg tissue, sectioned with scissors, sonicated for 5 min and centrifuged for 10 min (4 °C, 16,900 RCF), with the supernatant used for peptide quantification. The amount of peptide within the basal chamber and tissue samples was measured with the HPLC method described in Section 3.3 and presented as the percentage of the peptide dose originally applied to the apical chamber. The apparent permeability (Papp) of peptides was calculated using Equation (1):(1) […]
Equation (1): Apparent permeability (Papp) of peptides across the rat colonic tissue was calculated using the peptide flux (µg/s, dQ/dt), the surface area of the tissue (cm^2) and the initial peptide concentration in the apical chamber (C0).

[3] = human, human colon model (HCM), pooled human faecal slurry
[4] = human, human colon model (pooled human faecal slurry, anaerobic), HCM
[5] = male, Wistar, 1 mg/mL apical, read-out: apparent permeability (Papp)

Row | Molecule | Degradation rate constant ([1]; HCM) | half-life at 1 mg/mL [1, 3] | remaining at 1.5 h, 1 mg/mL [1, 4] | also measured
1 | CC[C@H](C)[C@@H]1NC(=O)[C@H](Cc2ccc(O)cc2)NC(=O)[C@@H](N)CSSC[C@@H](C(=O)N2CCC[C@H]2C(=O)N[C@H](CC(C)C)C(=O)NCC(N)=O)NC(=O)[C@H](CC(N)=O)NC(=O)[C@H](CCC(N)=O)NC1=O [Peptide P7] | 1.05 h⁻¹ | 39.6 min | 22.3 ± 0.85% | –
2 | CC[C@H](C)[C@@H]1NC(=O)[C@H](Cc2ccc(O)cc2)NC(=O)[C@@H](N)CSSC[C@@H](C(=O)N2CCC[C@H]2C(=O)N[C@@H](CC(C)C)C(=O)NCC(N)=O)NC(=O)[C@H](CC(N)=O)NC(=O)[C@H](CCC(N)=O)NC1=O [Oxytocin, oxytocin, reference compound] | 1.62 h⁻¹ | – | 6 ± 1.36% | original dose detected in the basolateral chamber [2]: not detected; original dose detected within the colonic tissue [2]: not detected; higher stability than linear P1 ([1]; HCM): 47.3 ± 1.98%; half-life at 1 mg/mL ([1]; human, HCM): 25.7 min
3 | CC[C@@H](C)[C@@H](NC(=O)[C@@H](Cc1ccc(O)cc1)NC(=O)[C@H](C)N)C(=O)N[C@@H](CCC(N)=O)C(=O)N[C@@H](CC(N)=O)C(=O)N[C@@H](C)C(=O)N1CCC[C@H]1C(=O)N[C@H](CC(C)C)C(=O)NCC(N)=O [Peptide P11] (H-A[dY][dI]QNAP[dL]G-NH2) | 0.289 h⁻¹ | 144 min | 64.2 ± 1.18% | Papp at 2 h, 1 mg/mL [2, 5]: 35.2 ×10⁻⁶ cm/s
4 | P1: Linear form of oxytocin, the two cysteines replaced by alanines (AYIQNAPLG-NH2; ends and bridges not checked; UniProt P01178 20-28, looked up, variant C1A C6A) [Peptide P1] | – | – | – | time interval in which entirely depleted ([1]; HCM): 0.0 to 0.5 h
5 | CC[C@H](C)[C@@H]1NC(=O)[C@H](Cc2ccc(O)cc2)NC(=O)[C@@H](NC(C)=O)CSSC[C@@H](C(=O)N2CCC[C@H]2C(=O)N[C@@H](CC(C)C)C(=O)NCC(N)=O)NC(=O)[C@H](CC(N)=O)NC(=O)[C@H](CCC(N)=O)NC1=O [Peptide P2] | 3.17 h⁻¹ | 13.1 min | – | metabolised at 1.5 h, 1 mg/mL ([1]; human, human colon model (pooled human faecal slurry, anaerobic), HCM, after 1.5 h, read-out: peptide degraded by the HCM): 97.2 ± 0.84%
6 | CC[C@@H](C)[C@H]1NC(=O)[C@@H](Cc2ccc(O)cc2)NC(=O)[C@@H](N)CSSC[C@@H](C(=O)N2CCC[C@H]2C(=O)N[C@H](CC(C)C)C(=O)NCC(N)=O)NC(=O)[C@H](CC(N)=O)NC(=O)[C@H](CCC(N)=O)NC1=O [Peptide P4] | 0.108 h⁻¹ | 385 min | 85.1 ± 0.21% | original dose detected in the basolateral chamber [2]: 6.85 ± 2.05%; original dose detected within the colonic tissue [2]: 3.0 ± 0.85%; Papp at 1 h, 1 mg/mL ([2]; male, Wistar, pH 7.4, 1 h (60 min), 1 mg/mL apical, read-out: apparent permeability (Papp)): 57 ×10⁻⁶ cm/s; Papp at 2 h, 1 mg/mL [2, 5]: 206 ×10⁻⁶ cm/s; higher stability than linear P1 ([1]; HCM): 90.3 ± 1.57%
7 | CC[C@@H](C)[C@H]1NC(=O)[C@@H](Cc2ccc(O)cc2)NC(=O)[C@H](C)NC(=O)CSC[C@@H](C(=O)N2CCC[C@H]2C(=O)N[C@H](CC(C)C)C(=O)NCC(N)=O)NC(=O)[C@H](CC(N)=O)NC(=O)[C@H](CCC(N)=O)NC1=O [Peptide P5] ({CH2CO}-A[dY][dI]QNCP[dL]G-NH2; thioether N-6) | 0.0322 h⁻¹ | 1290 min | 95.2 ± 3.14% | –
8 | CC[C@H](C)[C@@H]1NC(=O)[C@H](Cc2ccc(O)cc2)NC(=O)[C@@H](N)CSCc2cccc(c2)CSC[C@@H](C(=O)N2CCC[C@H]2C(=O)N[C@@H](CC(C)C)C(=O)NCC(N)=O)NC(=O)[C@H](CC(N)=O)NC(=O)[C@H](CCC(N)=O)NC1=O [Peptide P6] | 5.39 h⁻¹ | 7.71 min | – | time to 100% degradation ([1]; HCM): less than 1 h
9 | CC[C@H](C)[C@@H]1NC(=O)[C@H](Cc2ccc(O)cc2)NC(=O)[C@H](C)NC(=O)CSC[C@@H](C(=O)N2CCC[C@H]2C(=O)N[C@@H](CC(C)C)C(=O)NCC(N)=O)NC(=O)[C@H](CC(N)=O)NC(=O)[C@H](CCC(N)=O)NC1=O [Peptide P3] ({CH2CO}-AYIQNCPLG-NH2; thioether N-6) | 0.688 h⁻¹ | 60.4 min | 34.4 ± 0.61% | –
10 | CC[C@@H](C)[C@@H](NC(=O)[C@@H](Cc1ccc(O)cc1)NC(=O)[C@H](C)N)C(=O)N[C@@H](CCC(N)=O)C(=O)N[C@@H](CC(N)=O)C(=O)N[C@@H](C)C(=O)N1CCC[C@H]1C(=O)N[C@@H](CC(C)C)C(=O)NCC(N)=O [Peptide P10] (H-A[dY][dI]QNAPLG-NH2) | 2.05 h⁻¹ | 20.3 min | – | –
11 | CC[C@@H](C)[C@H]1NC(=O)[C@@H](Cc2ccc(O)cc2)NC(=O)[C@@H](N)CSSC[C@@H](C(=O)N2CCC[C@H]2C(=O)N[C@@H](CC(C)C)C(=O)NCC(N)=O)NC(=O)[C@H](CC(N)=O)NC(=O)[C@H](CCC(N)=O)NC1=O [Peptide P8] | 2.33 h⁻¹ | 17.8 min | 3.7 ± 0.43% | –
12 | CC[C@H](C)[C@H](NC(=O)[C@H](Cc1ccc(O)cc1)NC(=O)[C@H](C)N)C(=O)N[C@@H](CCC(N)=O)C(=O)N[C@@H](CC(N)=O)C(=O)N[C@@H](C)C(=O)N1CCC[C@H]1C(=O)N[C@H](CC(C)C)C(=O)NCC(N)=O [Peptide P9] (H-AYIQNAP[dL]G-NH2) | – | – | – | time to total degradation ([1]; HCM): less than 30 min; time interval in which entirely depleted ([1]; HCM): 0.0 to 0.5 h
